pEC50: −log10 of the molar value.
Molecular target: T1, mAChR hM4 (Homo sapiens, UniProt P08173)
T1 construct: expressed in transfected cells; host or cells: CHO-K1 (Chinese hamster ovary) cells
T1 sequence (P08173 1-479): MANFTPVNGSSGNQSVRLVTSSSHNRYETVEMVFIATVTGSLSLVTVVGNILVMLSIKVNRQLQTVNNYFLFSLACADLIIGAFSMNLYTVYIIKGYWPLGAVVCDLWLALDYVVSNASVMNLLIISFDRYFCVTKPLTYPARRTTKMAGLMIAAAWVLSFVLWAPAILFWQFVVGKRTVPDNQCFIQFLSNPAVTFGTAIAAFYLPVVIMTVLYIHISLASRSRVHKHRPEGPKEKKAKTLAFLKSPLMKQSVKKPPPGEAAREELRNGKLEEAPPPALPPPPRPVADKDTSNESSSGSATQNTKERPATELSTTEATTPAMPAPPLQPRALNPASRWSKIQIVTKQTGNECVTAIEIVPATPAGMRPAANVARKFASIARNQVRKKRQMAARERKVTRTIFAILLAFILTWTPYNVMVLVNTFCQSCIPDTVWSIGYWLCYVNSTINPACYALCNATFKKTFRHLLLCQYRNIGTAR
Test: mAChR M4 cell-based functional assay (calcium flux, potentiation of EC20 acetylcholine response)
Conditions: mAChR hM4 cell-line; for pEC50: >10,000 estimated for low potency compounds lacking a plateau; for Emax at 30 µM: % ACh maximum at 30 μM
Summary of the method: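 CHO-K1 cells expressing human M4, loaded with Fluo-4 Ca2+ dye; potentiation of an EC20 acetylcholine response read as increase in fluorescence static ratio. EC50 and Emax from concentration-dependent increase over the EC20 response.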

| Structure (SMILES) | pEC50 | Emax at 30 µM [%] |
| --- | --- | --- |
| Cc1nc2sc(C(=O)NCC3CC3)c(-c3cnn(C)c3)c2c(C)c1Cl [Compound 112, 5-chloro-N-(cyclopropylmethyl)-4,6-dimethyl-3-(1-methyl-1H-pyrazol-4-yl)thieno[2,3-b]pyridine-2-carboxamide] | < 5.00 | – |
| Cc1nc2sc(C(=O)N3CCCN(C)CC3)c(-c3cnn(C)c3)c2c(C)c1Cl [Compound 113, (5-chloro-4,6-dimethyl-3-(1-methyl-1H-pyrazol-4-yl)thieno[2,3-b]pyridin-2-yl)(4-methyl-1,4-diazepan-1-yl)methanone] | < 5.00 | – |
| Cc1nc2sc(C(=O)NC3COC3)c(-c3ccc4nonc4c3)c2c(C)c1Cl [Compound 114, 3-(benzo[c][1,2,5]oxadiazol-5-yl)-5-chloro-4,6-dimethyl-N-(oxetan-3-yl)thieno[2,3-b]pyridine-2-carboxamide] | < 5.00 | – |
| Cc1nc2sc(C(=O)NC3COC3)c(-c3cccs3)c2c(C)c1Cl [Compound 115, 5-chloro-4,6-dimethyl-N-(oxetan-3-yl)-3-(thiophen-2-yl)thieno[2,3-b]pyridine-2-carboxamide] | < 5.00 | – |
| Cc1nc2sc(C(=O)NC3COC3)c(-c3ccc4nccnc4c3)c2c(C)c1Cl [Compound 116, 5-chloro-4,6-dimethyl-N-(oxetan-3-yl)-3-(quinoxalin-6-yl)thieno[2,3-b]pyridine-2-carboxamide] | < 5.00 | – |
| Cc1nc2sc(C(=O)NC3COC3)c(-c3ccsc3)c2c(C)c1Cl [Compound 117, 5-chloro-4,6-dimethyl-N-(oxetan-3-yl)-3-(thiophen-3-yl)thieno[2,3-b]pyridine-2-carboxamide] | < 5.00 | – |
| Cc1nc2sc(C(=O)NCC3CC3)c(Cl)c2c(C)c1Cl [Compound 119, 3,5-dichloro-N-(cyclopropylmethyl)-4,6-dimethylthieno[2,3-b]pyridine-2-carboxamide] | < 5.00 | – |
| Cc1nc2sc(C(=O)N[C@@H](C)C3CC3)c(Cl)c2c(C)c1Cl [Compound 120, (S)-3,5-dichloro-N-(1-cyclopropylethyl)-4,6-dimethylthieno[2,3-b]pyridine-2-carboxamide] | < 5.00 | – |
| Cc1nc2sc(C(=O)N[C@H](C)C3CC3)c(Cl)c2c(C)c1Cl [Compound 121, (R)-3,5-dichloro-N-(1-cyclopropylethyl)-4,6-dimethylthieno[2,3-b]pyridine-2-carboxamide] | < 5.00 | – |
| Cc1nc2sc(C(=O)NC3CCC3)c(Cl)c2c(C)c1Cl [Compound 123, 3,5-dichloro-N-cyclobutyl-4,6-dimethylthieno[2,3-b]pyridine-2-carboxamide] | < 5.00 | 34 |
| Cc1nc2sc(C(=O)NCC3(C)COC3)c(Cl)c2c(C)c1Cl [Compound 125, 3,5-dichloro-4,6-dimethyl-N-((3-methyloxetan-3-yl)methyl)thieno[2,3-b]pyridine-2-carboxamide] | < 5.00 | – |
| Cc1nc2sc(C(=O)NC3[C@H]4C[C@@H]3C4)c(Cl)c2c(C)c1Cl (some centres unmarked) [Compound 127, N-((1s,3s)-bicyclo[1.1.1]pentan-2-yl)-3,5-dichloro-4,6-dimethylthieno[2,3-b]pyridine-2-carboxamide] | < 5.00 | 35 |
| Cc1nc2sc(C(=O)NC3CC(F)(F)C3)c(Cl)c2c(C)c1Cl [Compound 128, 3,5-dichloro-N-(3,3-difluorocyclobutyl)-4,6-dimethylthieno[2,3-b]pyridine-2-carboxamide] | < 5.00 | 33 |
| Cc1nc2sc(C(=O)NCC3CCC3)c(Cl)c2c(C)c1Cl [Compound 129, 3,5-dichloro-N-(cyclobutylmethyl)-4,6-dimethylthieno[2,3-b]pyridine-2-carboxamide] | < 5.00 | – |

Second part, the molecule after the results:

| pEC50 | Emax at 30 µM [%] | Structure (SMILES) |
| --- | --- | --- |
| < 5.00 | – | Cc1nc2sc(C(=O)N[C@H](C)C3CC3)c(-c3cnn(C)c3)c2c(C)c1Cl [Compound 96, (R)-5-chloro-N-(1-cyclopropylethyl)-4,6-dimethyl-3-(1-methyl-1H-pyrazol-4-yl)thieno[2,3-b]pyridine-2-carboxamide] |
| < 5.00 | – | Cc1nc2sc(C(=O)N3CCC3)c(-c3cnn(C)c3)c2c(C)c1Cl [Compound 97, azetidin-1-yl(5-chloro-4,6-dimethyl-3-(1-methyl-1H-pyrazol-4-yl)thieno[2,3-b]pyridin-2-yl)methanone] |
| < 5.00 | – | Cc1nc2sc(C(=O)NCc3cnn(-c4ccccc4)c3)c(-c3cnn(C)c3)c2c(C)c1Cl [Compound 98, 5-chloro-4,6-dimethyl-3-(1-methyl-1H-pyrazol-4-yl)-N-((1-phenyl-1H-pyrazol-4-yl)methyl)thieno[2,3-b]pyridine-2-carboxamide] |
| < 5.00 | – | COc1ccc(CNC(=O)c2sc3nc(C)c(Cl)c(C)c3c2-c2cnn(C)c2)cc1F [Compound 99, 5-chloro-N-(3-fluoro-4-methoxybenzyl)-4,6-dimethyl-3-(1-methyl-1H-pyrazol-4-yl)thieno[2,3-b]pyridine-2-carboxamide] |
| < 5.00 | – | Cc1cnc2sc(C(=O)NC3CN(c4ccc(C(F)(F)F)nc4)C3)cc2c1C [Compound 100, 4,5-dimethyl-N-(1-(6-(trifluoromethyl)pyridin-3-yl)azetidin-3-yl)thieno[2,3-b]pyridine-2-carboxamide] |
| 5.57 | 41 | Cc1cnc2sc(C(=O)NCc3ccc(-c4cccnc4F)cc3)cc2c1C [Compound 101, N-(4-(2-fluoropyridin-3-yl)benzyl)-4,5-dimethylthieno[2,3-b]pyridine-2-carboxamide] |
| < 5.00 | 60 | Cc1cnc2sc(C(=O)NC3COC3)cc2c1C [Compound 102, 4,5-dimethyl-N-(oxetan-3-yl)thieno[2,3-b]pyridine-2-carboxamide] |
| 6.24 | 76 | Cc1cnc2sc(C(=O)NC3CN(c4cccnc4)C3)cc2c1C [Compound 103, 4,5-dimethyl-N-(1-(pyridin-3-yl)azetidin-3-yl)thieno[2,3-b]pyridine-2-carboxamide] |
| < 5.00 | – | Cc1cnc2sc(C(=O)NCc3ccc(-c4ccnnc4)s3)cc2c1C [Compound 104, 4,5-dimethyl-N-((5-(pyridazin-4-yl)thiophen-2-yl)methyl)thieno[2,3-b]pyridine-2-carboxamide] |
| < 5.00 | – | Cc1nc2sc(C(=O)NCC3CCC3)c(-c3cnn(C)c3)c2c(C)c1Cl [Compound 105, 5-chloro-N-(cyclobutylmethyl)-4,6-dimethyl-3-(1-methyl-1H-pyrazol-4-yl)thieno[2,3-b]pyridine-2-carboxamide] |
| < 5.00 | – | Cc1nc2sc(C(=O)N3CCCOCC3)c(-c3cnn(C)c3)c2c(C)c1Cl [Compound 106, (5-chloro-4,6-dimethyl-3-(1-methyl-1H-pyrazol-4-yl)thieno[2,3-b]pyridin-2-yl)(1,4-oxazepan-4-yl)methanone] |
| < 5.00 | – | Cc1nc2sc(C(=O)N3CCN(C)CC3)c(-c3cnn(C)c3)c2c(C)c1Cl [Compound 107, (5-chloro-4,6-dimethyl-3-(1-methyl-1H-pyrazol-4-yl)thieno[2,3-b]pyridin-2-yl)(4-methylpiperazin-1-yl)methanone] |
| < 5.00 | – | Cc1nc2sc(C(=O)N3CCC(F)(F)CC3)c(-c3cnn(C)c3)c2c(C)c1Cl [Compound 108, (5-chloro-4,6-dimethyl-3-(1-methyl-1H-pyrazol-4-yl)thieno[2,3-b]pyridin-2-yl)(4,4-difluoropiperidin-1-yl)methanone] |
| < 5.00 | – | Cc1nc2sc(C(=O)N3CC4C(C3)C4(C)C)c(-c3cnn(C)c3)c2c(C)c1Cl (centres unmarked) [Compound 109, (5-chloro-4,6-dimethyl-3-(1-methyl-1H-pyrazol-4-yl)thieno[2,3-b]pyridin-2-yl)(6,6-dimethyl-3-azabicyclo[3.1.0]hexan-3-yl)methanone] |
| < 5.00 | – | Cc1nc2sc(C(=O)N3CCOCC3)c(-c3cnn(C)c3)c2c(C)c1Cl [Compound 110, (5-chloro-4,6-dimethyl-3-(1-methyl-1H-pyrazol-4-yl)thieno[2,3-b]pyridin-2-yl)(morpholino)methanone] |
| < 5.00 | – | Cc1nc2sc(C(=O)N[C@@H](C)C3CC3)c(-c3cnn(C)c3)c2c(C)c1Cl [Compound 111, (S)-5-chloro-N-(1-cyclopropylethyl)-4,6-dimethyl-3-(1-methyl-1H-pyrazol-4-yl)thieno[2,3-b]pyridine-2-carboxamide] |
| 5.82 | 56 | Cc1nc2sc(C(=O)NC3CC3)c(Cl)c2c(C)c1Cl [Compound 118, 3,5-dichloro-N-cyclopropyl-4,6-dimethylthieno[2,3-b]pyridine-2-carboxamide] |
| 5.59 | 61 | Cc1nc2sc(C(=O)NC3(C)COC3)c(Cl)c2c(C)c1Cl [Compound 122, 3,5-dichloro-4,6-dimethyl-N-(3-methyloxetan-3-yl)thieno[2,3-b]pyridine-2-carboxamide] |
| 5.92 | 43 | Cc1nc2sc(C(=O)NC3CCOC3)c(Cl)c2c(C)c1Cl (centres unmarked) [Compound 124, 3,5-dichloro-4,6-dimethyl-N-(tetrahydrofuran-3-yl)thieno[2,3-b]pyridine-2-carboxamide] |
| 6.28 | 67 | Cc1nc2sc(C(=O)NC3COC3)c(Cl)c2c(C)c1Cl [Compound 126, 3,5-dichloro-4,6-dimethyl-N-(oxetan-3-yl)thieno[2,3-b]pyridine-2-carboxamide] |

Source: patent US20160200733A1, “SUBSTITUTED THIENO[2,3-B]PYRIDINE-2-CARBOXAMIDE ANALOGS AS POSITIVE ALLOSTERIC MODULATORS OF THE MUSCARINIC ACETYLCHOLINE RECEPTOR M4” (Vanderbilt University, priority 2013, published 2016)
